Activity calls are given as the source filed them. The rule behind the calls is not given here.
What was measured:
Pseudomonas tolaasii [1] = assay: Binding affinity to Pseudomonas tolaasii tolaasin 1 at 1 mM by NMR spectroscopy
Pseudomonas tolaasii [2] = assay: Suppression of Pseudomonas tolaasii tolaasin 1-induced hemolysis in rat erythrocytes; assay type: cell-based
Pseudomonas tolaasii [3] = assay: Suppression of Pseudomonas tolaasii tolaasin 1-induced hemolysis in rat erythrocytes at 10 to 100 uM; assay type: cell-based
Pseudomonas tolaasii [4] = assay: Suppression of Pseudomonas tolaasii tolaasin 1-induced hemolysis in rat erythrocytes at >1 mM; assay type: cell-based

## Cc1[nH]c(=N)sc1C
Pseudomonas tolaasii [1]
  Activity: inactive
Pseudomonas tolaasii [2]
  Activity: inactive

## CCCCCCCC/C=C\CCCCCCCC(=O)OC[C@@H](O)[C@@H](O)[C@H](O)[C@@H](O)CO
Pseudomonas tolaasii [1]
  Activity: Active
Pseudomonas tolaasii [3]
  Activity: 40%
Pseudomonas tolaasii [4]
  Activity: inactive

From ChEMBL document CHEMBL1152350, “Identification of compounds exhibiting inhibitory activity toward the Pseudomonas tolaasii toxin tolaasin I using in silico docking calculations, NMR binding assays, and in vitro hemolytic activity assays” (Bioorg Med Chem Lett, 2009)
